From article PMC11676817, “Antiproliferative and Morphological Analysis Triggered by Drugs Contained in the Medicines for Malaria Venture COVID-Box Against Toxoplasma gondii Tachyzoites” (Microorganisms, 2024)
Where two headings read alike, the source gives them in different places.

How the values were obtained:
[1] = test system: Toxoplasma gondii tachyzoites of the RH strain; experiment: microbe, parasite or virus in culture; conditions: 168 h; for IC50: NHDF, read-out: IC50 (μM) in Tachyzoites, RH strain in NHDF cells, plaque assay, 7 days of treatment; for inhibition at 1 µM: read-out: Inhibition of tachyzoite proliferation
[2] = Human, cited from earlier work; for Plasma concentration (Cmax): ref Table S3 supplementary refs 1, 4, 8, 11, 13, 15, 17, 18, 19, 23, 31; for Cmax: read-out: Plasma concentration (Cmax), ref Table S3 supplementary refs 1, 4, 8, 11, 13, 15, 17, 18, 19, 23
[3] = test system: Toxoplasma gondii tachyzoites of the RH strain; experiment: microbe, parasite or virus in culture; assay type: cell-based; conditions: Toxoplasma gondii, 24 h of treatment, read-out: Proliferation index (%)
[4] = Rat, cited from earlier work
in vitro = conditions: human
[5] = published in vivo studies; ref Table S3; cited from earlier work
[6] = Mice/Mouse; ref Table S3 supplementary refs 6, 16, 24, 27, 33; cited from earlier work
[7] = test system: Toxoplasma gondii tachyzoites of the RH strain
T. gondii tachyzoites [8] = experiment: Immunofluorescence microscopy of treated tachyzoites (aberrant cell division, rhoptry morphology); conditions: 1 µM, 24 h
Protocol: Rabbit anti-IMC1 (1:1000) and anti-ARO (1:1000) (kindly provided by Dr. Dominique Soldati, Universite de Geneve, Switzerland) were used to label the mother cell and daughter cell pellicles throughout the endodyogeny process and rhoptries, respectively. Mouse anti-SAG1 (1:200; kindly donated by Dr. Tiago Mineo, Universidade Federal de Uberlândia) was used to label the parasite plasma membrane. DAPI (2 µg/mL; Sigma-Aldrich, St. Louis, MO, USA) was used to label the DNA. […] After labeling with antibodies, the coverslips were mounted onto slides using Prolong gold (Life Technologies), and samples were examined on a Zeiss Axio Observer Z1 microscope (Baden-Württemberg, Germany) or Olympus BX60 microscope (Shinjuku City, Tokyo, Japan).

[9] = cited from earlier work
T. gondii tachyzoites [10] = experiment: Transmission electron microscopy of treated tachyzoites; assay type: cell-based, Toxoplasma gondii; conditions: 1 µM, 48 h
Protocol: NHDF cultures infected with T. gondii were treated with compounds and fixed with 2.5% glutaraldehyde (EM Grade—Ted Pella Inc., Redding, CA, USA) in 0.1 M sodium cacodylate buffer pH 7.4 (Ted Pella Inc.). Cells were post-fixed with 1% osmium tetroxide, 1.25% potassium ferrocyanide, and 5 mM CaCl2, in 0.1 M sodium cacodylate buffer (pH 7.4). The sample fixation and processing for microscopy were performed as previously described. Samples were dehydrated in alcohol solutions of increasing concentrations (35–100%) and embedded in epoxy resin (Polybed 812, Polysciences). Ultrathin sections were collected in copper grids 300 mesh (Ted Pella Inc.), stained with uranyl acetate and lead citrate, and then observed in a Fei TecNai G2 120 kV Spirit Electron Microscope (FEI Company, Eindhoven, The Netherlands).

With O=c1[nH]c2ccccc2n1C1CCN(CCCC(c2ccc(F)cc2)c2ccc(F)cc2)CC1 [Pimozide] the IC50 [1] was 0.64 ± 0.15 µM.
In the case of Cc1ccc(C(=O)Nc2ccc(CN3CCN(C)CC3)c(C(F)(F)F)c2)cc1C#Cc1cnc2cccnn12 [Ponatinib], the IC50 [1] is listed as 0.33 ± 0.03 µM, the “Plasma concentration (Cmax)” value [2] is listed as 123 ng/mL and the Cmax [2] is listed as 231 nM.
Work on CCc1nc(N)nc(N)c1-c1ccc(Cl)cc1 [Pyrimethamine] yielded an activity at 0.125 µM ([3]; 125 nM) of 87.3%, an activity at […] ([3]; 250 nM) of 56.6% and an activity at 0.5 µM ([3]; 500 nM) of 39.2%. For the same compound, the activity at 1 µM ([3]; 1000 nM) was 22%.
For COc1ccc2cc1Oc1ccc(cc1)C[C@H]1c3cc(c(OC)cc3CCN1C)Oc1c(OC)c(OC)cc3c1[C@H](C2)N(C)CC3 [Tetrandrine], the “Plasma concentration (Cmax)” value ([4]; ref Table S3 supplementary refs 28, 32) is listed as 237.10 ng/mL, the Cmax ([4]; read-out: Plasma concentration (Cmax), ref Table S3 supplementary refs 3, 10, 12, 28, 32) is listed as 381 nM and the CC50 at 7 days (in vitro) is listed as 4770 ± 8250 nM. The selectivity ratio at 7 days (in vitro) was 14, the IC50 [1] was 0.35 ± 0.07 µM and the Brain availability [5] was “confirmed”. For the same compound, the “Does it cross the blood-brain barrier or is found in the brain?” value [6] was “Yes”.
In the case of CCCCc1oc2ccccc2c1C(=O)c1cc(I)c(OCCN(CC)CC)c(I)c1 [amiodarone, Amiodarone], the “Cytotoxicity for the host cells during the initial screening” value [7] is reported as “signs of cytotoxicity for the host cells”.
With C[C@H]1O[C@@H](O[C@H]2[C@@H](O)C[C@H](O[C@H]3[C@@H](O)C[C@H](O[C@H]4CC[C@@]5(C)[C@H](CC[C@@H]6[C@@H]5CC[C@]5(C)[C@@H](C7=CC(=O)OC7)CC[C@]65O)C4)O[C@@H]3C)O[C@@H]2C)C[C@H](O)[C@@H]1O [digitoxin, Digitoxin] the inhibition at 1 µM [1] was no less than 70%.
Work on COc1cccc2c1C(=O)c1c(O)c3c(c(O)c1C2=O)C[C@@](O)(C(=O)CO)C[C@@H]3O[C@H]1C[C@H](N)[C@H](O)[C@H](C)O1 [doxorubicin, Doxorubicin] yielded an inhibition at 1 µM [1] of no less than 70%.
Compound C[C@H]1c2cccc(O)c2C(=O)C2=C(O)[C@]3(O)C(=O)C(C(N)=O)=C(O)[C@@H](N(C)C)[C@@H]3[C@@H](O)[C@@H]21 [doxycycline, Doxycycline] has an inhibition at 1 µM [1] of no less than 70%.
With CCC(C)n1ncn(-c2ccc(N3CCN(c4ccc(OCC5COC(Cn6cncn6)(c6ccc(Cl)cc6Cl)O5)cc4)CC3)cc2)c1=O (stereo not shown) [itraconazole, Itraconazole] the inhibition at 1 µM [1] was no less than 70%.
In the case of C[C@@H]1O[C@@H](O[C@@H]2C=C3CC[C@@H]4[C@H](CC[C@]5(C)[C@@H](c6ccc(=O)oc6)CC[C@]45O)[C@@]3(C)CC2)[C@H](O)[C@H](O)[C@H]1O [proscillaridin, Proscillaridin], the inhibition at 1 µM [1] is reported as no less than 70% and the “Cytotoxicity for the host cells during the initial screening” value ([7]; 1 µM, NHDF host cells) is reported as “signs of cytotoxicity for the host cells”.
In the case of Ivermectin, the “Effect on tachyzoite cell division (fluorescence microscopy)” value (T. gondii tachyzoites [8]) is listed as “significant cell division arrestment”, the “Plasma concentration (Cmax)” value ([9]; Mouse, ref Table S3 supplementary ref 16) is listed as 642.3 ng/mL and the Cmax ([9]; read-out: Plasma concentration (Cmax), Mouse/Mice, ref Table S3 supplementary refs 16, 27) is listed as 734 nM. The “Plasma concentration (Cmax)” value [2] was 260.5 ng/mL, the Cmax [2] was 298 nM and the “Effect on T. gondii ultrastructure (TEM)” value (T. gondii tachyzoites [10]) was “induced the formation of myelin-like structures”.
